Read-outs that look alike come from different tables or passages of the source.
What was measured:
[1] = target: T1, TrxR in HCT116 cells (Homo sapiens, UniProt Q16881); experiment: Endogenous TrxR activity in cell lysates (DTNB reduction assay); assay type: cell-based
T1 sequence (Q16881 1-649): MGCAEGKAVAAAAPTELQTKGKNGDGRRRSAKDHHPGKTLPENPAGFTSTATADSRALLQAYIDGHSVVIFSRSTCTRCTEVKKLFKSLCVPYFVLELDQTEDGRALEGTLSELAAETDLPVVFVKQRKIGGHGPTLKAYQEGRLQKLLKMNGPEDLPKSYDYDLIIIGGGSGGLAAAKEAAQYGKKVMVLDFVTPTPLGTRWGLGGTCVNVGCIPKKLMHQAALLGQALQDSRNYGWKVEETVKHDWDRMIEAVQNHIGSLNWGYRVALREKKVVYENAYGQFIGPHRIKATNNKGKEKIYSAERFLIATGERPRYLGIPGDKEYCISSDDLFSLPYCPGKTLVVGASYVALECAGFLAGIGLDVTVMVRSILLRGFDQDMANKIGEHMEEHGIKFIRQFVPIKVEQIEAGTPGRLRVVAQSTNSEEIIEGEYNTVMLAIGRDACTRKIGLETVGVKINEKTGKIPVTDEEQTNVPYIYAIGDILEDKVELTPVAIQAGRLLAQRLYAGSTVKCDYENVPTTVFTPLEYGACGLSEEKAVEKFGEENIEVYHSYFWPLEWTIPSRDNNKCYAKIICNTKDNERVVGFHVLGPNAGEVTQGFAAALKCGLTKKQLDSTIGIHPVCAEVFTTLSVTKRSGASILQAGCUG

[2] = target: T2, Prdx1 (Homo sapiens, UniProt Q06830); experiment: Monomeric avidin pull-down and Prdx1 immunoprecipitation, identification of Prdx1 modification; assay type: cell-based; details: GSH-depleted HCT116, 100 μM, 4 h
T2 construct: endogenous in cells; host or cells: HCT116 (GSH-depleted with BSO)
T2 sequence (Q06830 2-199 limits assumed): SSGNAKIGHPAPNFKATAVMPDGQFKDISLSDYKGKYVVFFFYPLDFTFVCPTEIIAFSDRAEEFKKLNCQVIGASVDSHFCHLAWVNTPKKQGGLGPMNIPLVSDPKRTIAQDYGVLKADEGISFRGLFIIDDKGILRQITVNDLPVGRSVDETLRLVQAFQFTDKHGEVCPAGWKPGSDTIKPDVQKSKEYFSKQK
Experimental: After separation by SDS-PAGE under reducing conditions and PageBlue® protein staining (Thermo scientific), bands of interest were excised, reduced with DTT, alkylated with iodoacetamide and in-gel digested with trypsin (Promega). Peptides were extracted with acetonitrile 50% in 0.2% formic acid and analyzed by Nano LC-MS/MS after partial evaporation in a speed-vac concentrator. LC-MS/MS experiments were performed on an NanoAcquity UPLC (Waters) coupled to a hybrid LTQ Orbitrap Velos mass spectrometer (Thermo Fisher Scientific) equipped with a nanoelectrospray source. Tryptic digests were loaded onto a nanoAcquity UPLC Trap column (Symmetry C18, 5 μm, 180 μm×20 mm, Waters) and washed with 0.2% formic acid at 20 μL/min for 5 min. Peptides were then eluted on a C18 reverse-phase nanoAcquity column (BEH130 C18, 1.7 μm, 75 μm×250 mm, Waters) with a linear gradient of 7-30% solvent B (H2O/CH3CN/HCOOH, 10:90:0.2, by vol.) for 85 min, 30-90% solvent B for 10 min, and 90% solvent B for 5 min, at a flow rate of 250 nL/min.
The mass spectrometer was operated in the data-dependent mode to automatically switch between MS and MS/MS acquisition. […] The exact parent mass is the ^12C isotope ion mass of the most intense isotopic pattern detected on the high resolution Orbitrap MS parallel scan and included in the MS/MS selection window. […]

[3] = target: T3, recombinant human GAPDH (Homo sapiens, UniProt P04406); experiment: In vitro modification of GAPDH by Iniparib and I-NOBA; assay type: binding
T3 construct: purchased Acris
T3 sequence (P04406 whole entry): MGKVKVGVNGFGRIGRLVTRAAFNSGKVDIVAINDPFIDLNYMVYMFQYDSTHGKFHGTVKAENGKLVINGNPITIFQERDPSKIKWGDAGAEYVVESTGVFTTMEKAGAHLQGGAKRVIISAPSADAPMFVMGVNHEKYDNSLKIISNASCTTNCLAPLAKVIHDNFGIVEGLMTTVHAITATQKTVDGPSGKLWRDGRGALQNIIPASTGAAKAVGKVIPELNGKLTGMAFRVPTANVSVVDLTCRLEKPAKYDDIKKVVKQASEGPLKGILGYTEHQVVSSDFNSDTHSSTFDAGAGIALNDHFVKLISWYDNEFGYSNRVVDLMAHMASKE
Experimental: For biochemical analysis, recombinant human GAPDH (Acris) was first reduced by a 15,000-fold excess of DTT at 56° C. for 30 min, the reducing agent being removed thereafter by chloroform/methanol precipitation. […] Afterwards the samples were submitted or not to another reducing step with 25 mM DTT (56° C., 30 min), and after removal of DTT by chloroform/methanol precipitation, biotinylation of free cysteine sulfhydryl groups of GAPDH was performed with HPDP-biotin (N-[6-(Biotinamido)hexyl]-3′-(2′-pyridyldithio)propionamide) at […] for 2 h at 20° C.
Sample mixtures were then reduced or not with 25 mM DTT (56° C., 30 min). Intact molecular weights were measured by mass spectrometry. Liquid chromatography-electrospray ionization mass spectrometry (LC/MS) was carried out using LTQ-Orbitrap Elite mass spectrometer (Thermo Fisher Scientific) coupled to a Famos Autosampler and an Ultimate Pump (LC-Packing, Dionex). Reverse phase chromatography was performed with a binary buffer system consisting of 0.2% formic acid (buffer A) and 80% acetonitrile in 0.2% formic acid (buffer B). After dilution to 1 pmole/μl in 0.2% formic acid, 1 μl of samples were loaded on a Poros 1 R/H column (75 μm×15 cm, Dionex). […] Mass spectra (m/z 500-2,000) were acquired in the positive ITMS mode with 5 μscans accumulation, a target value of 30,000 and a maximum injection time of 100 ms. The acquired raw files were converted in MassLynx format (Waters) using an home-made program and then were deconvoluted using MaxEnt software (Waters).

[4] = HCT-116, read-out: inhibition of TrxR reductase activity, 100 μM, 4 h, BSO-pretreated HCT116
[5] = HCT-116, read-out: inhibition of TrxR reductase activity, 100 μM, first 2 h of incubation, BSO-pretreated HCT116

Compound	inhibition at 100 µM [1, 4]	inhibition at 100 µM [1, 5]	Prdx1 modification after in-cell bio activation [2]	covalent modification of GAPDH (MS analysis) ([3]; purified GAPDH incubated with compound)	blocking of free thiol groups in GAPDH ([3]; purified GAPDH, biotin-HPDP labeling, streptavidin-HRP blot)	modification of free thiol groups in purified GAPDH [3]
NC(=O)c1ccc(I)c([N+](=O)[O-])c1 [Iniparib, 4-iodo-3-nitrobenzamide]	~100%	> 90%	modifies Cys173	not able to covalently modify the protein	ineffective	
O=C(CCCC[C@@H]1SC[C@@H]2NC(=O)N[C@@H]21)NCCNC(=O)c1ccc(I)c([N+](=O)[O-])c1 [Iniparib-biotin, 4-iodo-3-nitro-N-(2-(5-((3 aS,4S,6aR)-2-oxohexahydro-1H-thieno[3,4-d]imidazol-4-yl)pentanamido)ethyl)benzamide]	~100%	> 90%	modifies Cys173			did not modify free thiol groups
